Test results published in publication PMC9320607, “Synthesis, Biological Evaluation and Docking Studies of Ring-Opened Analogues of Ipomoeassin F” (Molecules, 2022).
“Also recorded” adds a separate entry of the source. Read-outs that look alike come from different tables or passages of the source.

Tests used:
MDA-MB-231 cells = test: Resazurin-based cytotoxicity assay in MDA-MB-231 cells; type: cell-based, human; settings: for IC50: Homo sapiens; for loss in activity when compared to 1: MDA-MB-231 cells IC50
Source text: (§1) To investigate the impact of ring-opening, we first submitted the open-chain analogue 1 [9] to the National Cancer Institute (NCI) 60-cell line screening (Supplementary Material S1) and determined the cytotoxicity of nine newly synthesized open-chain analogues 4–12 (Figure 2, Supplementary Materials S2 and S3) against MDA-MB-231 cells (Table S1). […] Furthermore, the majority of the nine new open-chain analogues were modestly less cytotoxic towards MDA-MB-231 cells when compared to their direct ring-closed counterparts (analogues 13–21 matching with 4–12; Figures S1 and S2 and Table S1).
The human breast cancer cell line (MDA-MB-231) was maintained in a DMEM high glucose culture medium supplemented with 10% (v/v) fetal bovine serum (FBS) and 2 mM L-glutamine. Parental (Sec61α-WT) HCT-116 (human colorectal cancer cells, ATCC, CCL-247) and mutant (Sec61α-G80W) HCT-116 cells were maintained in McCoy’s 5A (modified) medium ((ThermoFisher, Waltham, MA, USA, 16600-082)) supplemented with 10% (v/v) FBS (Gibco, 10500-064) and 100 units/mL penicillin and […] streptomycin (Gibco, cat: 15140-122). All cell lines were maintained in a 5% CO2 humidified incubator at 37 °C. Cytotoxicity assays were performed in triplicate sets as previously described and viable cells were counted using an automated cell counter (Bio-Rad TC20) immediately before each experiment. Compound stock solutions in DMSO (10 mM) were diluted with supplemented culture media (MDA-MB-231 cells: high glucose DMEM; HCT116 Sec61α-WT and Sec61α-G80W cells: McCoy’s (modified) 5A) to make a series of gradient fresh working solutions at equal DMSO percentage immediately prior to each test. First, […] of cells at a cell density of […] (MDA-MB-231 cells) or 2.5 × 10^4 cells/mL (Sec61α-WT or Sec61α-G80W HCT-116 cells) were seeded in black 96-well microtiter plates (Falcon, product 353219; 2500 cells/well) and incubated at 37° C for 24 h. Subsequently, the cells were treated with either […] of the freshly made gradient working solution in a total volume of […]/well (MDA-MB-231 cells) or 25 mL of freshly made gradient in a total volume of […]/well (Sec61α-WT or Sec61α-G80W HCT-116 cells) at 37 °C for 72 h. For MDA-MB-231 cells, the media were discarded and […] fresh medium containing 10% (v/v) alamarBlue HS cell viability reagent (resazurin stock solution) (ThermoFisher, Waltham, MA, USA, A50100) was added to each well. For Sec61α-WT or Sec61α-G80W HCT-116 cells, the media was not discarded and alamarBlue HS cell viability reagent (resazurin stock solution) (ThermoFisher, Waltham, MA, USA, A50100) was added to 10% (v/v). After that, all cells were incubated at 37 °C for a further 1–3 h and the emission of each well at 620 nm was detected using a Synergy H1 Hybrid multi-mode plate reader (BioTek, Agilent Technologies, Palo Alto, CA, USA) at excitation 580 nm. […] IC50 value estimates were determined using nonlinear regression to fit data to a curve of variable slope (four parameters) using the least-squares fitting method. For HCT-116 cell IC50 curves, the top and bottom plateaus were defined as 100% and 23.70% (the mean of all data at 25 µM across all compounds), respectively.

[1] = target: T1, Sec61-mediated protein translocation (membrane integration of Ii) (Canis lupus familiaris, UniProt P38377); test: In vitro membrane insertion assay of Ii with ER microsomes; type: biochemical, canine; settings: for reduction in Ii membrane integration / inhibition of in vitro membrane integration of Ii: 1 µM compound; for inhibition of in vitro membrane integration of Ii: versus DMSO control
T1 construct: cell-free translation system supplemented with ER microsomes derived from canine pancreas; from tissue; host or cells: canine pancreas ER microsomes (nuclease-treated); the Ii substrate was translated in vitro from T7-transcribed RNA
Source text: Having previously established that the principal molecular basis for the cytotoxicity of Ipom-F is its strong, yet reversible, binding to Sec61α and the resultant wide-ranging blockade of Sec61-mediated protein translocation at the ER [13], we sought evidence that this mechanism also underlies the cytotoxic effects of 1 and other open-chain analogues. […] For comparative purposes, we analyzed the effects of 2 [13] and two closed-chain compounds: Ipom-F and the diester-modified analogue 22 [11] in parallel (Figure 3A).
Following the resolution of radiolabeled proteins by SDS-PAGE (Figure 3B), we used the efficiency with which the N-terminal domain of the type II integral membrane protein Ii (short form of HLA class II histocompatibility antigen gamma chain, isoform 1) was N-glycosylated inside the ER lumen as a robust reporter for the authentic membrane integration of this model Sec61-dependent protein client (Figure 3B, right upper panel, 0Gly versus 2 Gly forms).
Linear DNA of the short form of human HLA class II histocompatibility antigen gamma chain (Ii; P04232, […], residues 17–232) or human glycophorin C (GypC; P04921) were generated by PCR and transcribed into RNA using T7 RNA polymerase (Promega). Membrane insertion assays (20 µL, 1 h at 30 °C, containing 6.5% (v/v) nuclease-treated ER microsomes (from stock with OD280 = 44/mL)), endoglycosidase Hf (New England Biolabs) treatment, sample resolution by SDS-PAGE (16% polyacrylamide gels) and gel drying were performed as previously described. Following exposure to a phosphorimaging plate for 24–72 h, radiolabeled products were visualized using a Typhoon FLA-7000 (GE Healthcare, Tokyo, Japan) and the ratio of the signal intensity for the N-glycosylated (XGly) and non-glycosylated (0Gly) forms obtained using AIDA v.5.0 (Raytest Isotopenmeβgeräte). This value was then expressed relative to the matched DMSO control (set to 100%) in order to estimate the mean relative insertion (± SEM) from insertion experiments performed in triplicate (n = 3, biologically independent experiments). IC50 value estimates were determined in Prism 8 (GraphPad, San Diego, CA, USA) using nonlinear regression to fit data to a curve of variable slope (four parameters) using the least-squares fitting method, with the top and bottom plateaus of the curve defined as 100% and 7.67% (the mean of all data at 500 µM across all compounds), respectively.

HCT116 Sec61α-WT cells = test: Resazurin-based cell viability assay in HCT116 Sec61α-WT cells; set-up: species or system human; settings: for cell death: 50 nM, 72 h; for IC50: Homo sapiens
Method: Parental (Sec61α-WT) […] All cell lines were maintained in a 5% CO2 humidified incubator at 37 °C. Cytotoxicity assays were performed in triplicate sets as previously described and viable cells were counted using an automated cell counter (Bio-Rad TC20) immediately before each experiment. Compound stock solutions in DMSO (10 mM) were diluted with supplemented culture media (MDA-MB-231 cells: high glucose DMEM; HCT116 Sec61α-WT and Sec61α-G80W cells: McCoy’s (modified) 5A) to make a series of gradient fresh working solutions at equal DMSO percentage immediately prior to each test. […] For MDA-MB-231 cells, the media were discarded and […] fresh medium containing 10% (v/v) alamarBlue HS cell viability reagent (resazurin stock solution) (ThermoFisher, Waltham, MA, USA, A50100) was added to each well. For Sec61α-WT or Sec61α-G80W HCT-116 cells, the media was not discarded and alamarBlue HS cell viability reagent (resazurin stock solution) (ThermoFisher, Waltham, MA, USA, A50100) was added to 10% (v/v). After that, all cells were incubated at 37 °C for a further 1–3 h and the emission of each well at 620 nm was detected using a Synergy H1 Hybrid multi-mode plate reader (BioTek, Agilent Technologies, Palo Alto, CA, USA) at excitation 580 nm. […] IC50 value estimates were determined using nonlinear regression to fit data to a curve of variable slope (four parameters) using the least-squares fitting method.

NCI 60-cell line = NCI 60-cell line screening; type: cell-based, human; settings: Homo sapiens, 60 cell, read-out: average GI50
Source text: as §1

[2] = Table 1, Ii membrane integration, read-out: In Vitro Translocation Inhibition (IC50)
[3] = HCT-116, Table 1, HCT116 Sec61α-WT cells, read-out: Cytotoxicity HCT-116 Cells (IC50)
[4] = MDA-MB-231, 72 h, MDA-MB-231 cells, 72 h, read-out: IC50 (cytotoxicity)
[5] = MDA-MB-231, MDA-MB-231 cells, at least three independent experiments, read-out: IC50 ± SD, ring-open

T1 sequence (P60058 whole entry): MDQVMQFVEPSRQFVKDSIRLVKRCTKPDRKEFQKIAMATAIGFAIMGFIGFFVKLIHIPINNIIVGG
T1 sequence (P38377 2-476): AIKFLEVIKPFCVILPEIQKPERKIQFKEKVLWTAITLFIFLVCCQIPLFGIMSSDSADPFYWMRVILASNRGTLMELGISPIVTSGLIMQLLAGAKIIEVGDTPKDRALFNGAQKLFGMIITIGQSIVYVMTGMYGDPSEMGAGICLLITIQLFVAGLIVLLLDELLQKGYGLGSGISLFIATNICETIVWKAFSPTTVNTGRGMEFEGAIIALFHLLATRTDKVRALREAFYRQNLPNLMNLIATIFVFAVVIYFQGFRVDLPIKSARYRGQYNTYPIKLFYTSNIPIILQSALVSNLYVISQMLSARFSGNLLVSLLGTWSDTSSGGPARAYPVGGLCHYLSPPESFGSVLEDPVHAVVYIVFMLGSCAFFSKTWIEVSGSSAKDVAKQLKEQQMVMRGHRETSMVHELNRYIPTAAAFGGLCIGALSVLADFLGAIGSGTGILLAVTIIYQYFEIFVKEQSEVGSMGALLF
T1 sequence (P60467 2-96, further chain): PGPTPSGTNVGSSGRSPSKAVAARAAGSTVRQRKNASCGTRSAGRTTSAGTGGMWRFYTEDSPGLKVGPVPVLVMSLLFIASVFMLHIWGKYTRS

| Compound | inhibition of in vitro membrane integration of Ii [1] | cell death (HCT116 Sec61α-WT cells; HCT116 Sec61α-WT cells) | IC50 (MDA-MB-231 cells; [5]) | further results |
| --- | --- | --- | --- | --- |
| C/C=C(\C)C(=O)O[C@@H]1[C@@H](O)[C@@H]2O[C@H]3[C@H](O[C@@H](CCCCC)CCCCCCC(=O)CCC(=O)OC[C@@H](O2)[C@H]1OC(=O)/C=C/c1ccccc1)O[C@H](C)[C@H](OC(C)=O)[C@@H]3O [Ipom-F, ipomoeassin F] | efficiently, albeit variably, inhibited | 48–64% |  | IC50 (MDA-MB-231 cells; MDA-MB-231, 72 h, read-out: IC50 (cytotoxicity)): ~7 nM; IC50 (MDA-MB-231 cells; MDA-MB-231, read-out: IC50 ± SD, ring-closed): 6.5 ± 0.4 nM; IC50 [1]: 155 nM; reduction in Ii membrane integration [1]: 73–86%; IC50 (HCT116 Sec61α-WT cells; HCT-116, read-out: Cytotoxicity HCT-116 Cells (IC50)): 18 nM; GI50 (NCI 60-cell line): ~30 nM |
| C/C=C(\C)C(=O)O[C@@H]1[C@@H](O)[C@H](O[C@H]2[C@H](O[C@H](CCC)CCCCC)O[C@H](C)[C@H](OC(C)=O)[C@@H]2O)O[C@H](COC(=O)CCC(=O)CCCCC)[C@H]1OC(=O)/C=C/c1ccccc1 [analogue 2] | efficiently, albeit variably, inhibited | 48–64% |  | reduction in Ii membrane integration [1]: 73–86%; IC50 [1, 2]: 202 nM; IC50 (HCT116 Sec61α-WT cells; [3]): 41 nM |
| C#CCOc1ccc(C=CC(=O)OC2C(COC(=O)CCC(=O)CCCC=C)OC(OC3C(OC(CC=C)CCCCC)OC(C)C(OC(C)=O)C3O)C(O)C2OC(=O)C(C)=CC)cc1 (centres unmarked) [analogue 4] |  |  | 168 ± 19 nM | IC50 (MDA-MB-231 cells; [4]): ~168 nM; loss in activity when compared to 1 (MDA-MB-231 cells): 3–4 fold |
| C=CCCN(C)C(=O)CCC(=O)OCC1OC(OC2C(OC(CC=C)CCCCC)OC(C)C(OC(C)=O)C2O)C(O)C(OC(=O)C(C)=CC)C1OC(=O)C=Cc1ccccc1 (centres unmarked) [analogue 5] | efficiently, albeit variably, inhibited | 48–64% | 43 ± 11 nM | IC50 (MDA-MB-231 cells; [4]): ~43 nM; reduction in Ii membrane integration [1]: 73–86%; IC50 [1, 2]: 291 nM; IC50 (HCT116 Sec61α-WT cells; [3]): 41 nM |
| C=CCCCCCCC(=O)OCC1OC(OC2C(OC(CC=C)CCCCC)OC(C)C(OC(C)=O)C2O)C(O)C(OC(=O)C(C)=CC)C1OC(=O)C=Cc1ccccc1 (centres unmarked) [analogue 6] | did not; also recorded: negligible inhibition | ~ 20% | 205 ± 11 nM | IC50 (MDA-MB-231 cells; [4]): ~205 nM; loss in activity when compared to 1 (MDA-MB-231 cells): 3–4 fold |
| C=CCCCC(=O)CCC(=O)OCC1OC(OC2C(OC(CC=C)CCCCC)OC(C)C(O)C2O)C(O)C(OC(=O)C(C)=CC)C1OC(=O)C=Cc1ccccc1 (centres unmarked) [analogue 7] |  |  | 3880 nM |  |
| C=CCCCC(=O)CCC(=O)OCC1OC(OC2C(OC(CC=C)CCCCC)OC(C)C(OC(C)=O)C2O)C(O)C(OC(=O)C(C)=CC)C1OC(=O)c1ccccc1 (centres unmarked) [analogue 8] |  |  | 4610 nM |  |
| C=CCCCC(=O)CCC(=O)OCC1OC(OC2C(OC(CC=C)CCCCC)OC(C)C(OC(C)=O)C2O)C(O)C(OC(=O)C(C)=CC)C1OC(=O)CCc1ccccc1 (centres unmarked) [analogue 9] |  |  | 2170 nM |  |
| C=CCCCC(=O)CCC(=O)OCC1OC(OC2C(OC(CC=C)CCCCC)OC(C)C(OC(C)=O)C2O)C(O)C(OC(=O)C(C)=CC)C1OC(=O)C(C)=CC (centres unmarked) [analogue 10] |  |  | 2740 nM |  |
| C=CCCCC(=O)CCC(=O)OCC1OC(OC2C(OC(CC=C)CCCCC)OC(C)C(OC(C)=O)C2O)C(O)C(O)C1OC(=O)C=Cc1ccccc1 (centres unmarked) [analogue 11] |  |  | 6320 nM |  |
| C=CCCCC(=O)CCC(=O)OCC1OC(OC2C(OC(CC=C)CCCCC)OC(C)C(OC(C)=O)C2O)C(O)C(OC(=O)C(C)=CC)C1O (centres unmarked) [analogue 12] |  |  | 5600 nM |  |
| C/C=C(\C)C(=O)O[C@@H]1[C@@H](O)[C@@H]2O[C@H]3[C@H](O[C@@H](CCCCC)CCCCCOC(=O)CCC(=O)OC[C@@H](O2)[C@H]1OC(=O)/C=C/c1ccccc1)O[C@H](C)[C@H](OC(C)=O)[C@@H]3O [analogue 22] | efficiently, albeit variably, inhibited | 48–64% |  | IC50 [1, 2]: 334 nM; IC50 (HCT116 Sec61α-WT cells; [3]): 70 nM |
